# Experimental data published in patent publication US9670255B2 (priority 2013, dated 2017).
# Columns and labels:
# LISA314 WT = assay: Affinity analysis by SPR (Biacore assay), LISA314 WT; assay type: binding, Streptomyces avidinii; conditions: SPR Biacore T100, protein immobilized on Sensor Chip NTA, equilibrium value analysis, read-out: Dissociation constant: KD
# Protocol: (§1) For affinity analysis, Biacore T100 was used. Specifically, the protein that had been fractionated by gel filtration chromatography was immobilized using Sensor Chip NTA. As a running buffer, 0.5% Tween20, HBS-P+ was used. Immobilization of the protein on nickel NTA and ligand capture were carried out according to the template program included therewith.
# (§2) The amount of a ligand immobilized on a sensor chip was adjusted within the range of 1608 RU to 8042 RU, so as to suppress mass transport limitation. As analytes, biocytin and Compound 29 (the structure thereof is shown below) synthesized in Example 1 were used. It is to be noted that biocytin is a main existence form of biotin.
# (§3) With regard to the concentrations of the analytes, in the case of biocytin, eight 2-fold dilution series were prepared from 1 μM, and in the case of Compound 29, twelve 2-fold dilution series were prepared from 16 μM. The measurement was carried out at a flow rate of 30 μl/min, for a contact time of 120 seconds, and for a dissociation time of 600 seconds. For the analysis of the data, sensorgrams for all concentrations were incorporated into analysis software, the equilibrium value analysis was then carried out, and the dissociation constant KD was then calculated.
# LISA314 V21 = LISA314 V21 (Streptomyces avidinii, UniProt P22629, E125D/E140N/N47D/R108K/R127K/S51D/Y107S/Y46S); assay: Affinity analysis by SPR (Biacore assay), LISA314 V21; assay type: binding; conditions: SPR Biacore T100, protein immobilized on Sensor Chip NTA, equilibrium value analysis, read-out: Dissociation constant: KD
# Protocol: as §1, §2, §3
# LISA314 V21, sequence (P22629 25-183 Y46S/N47D/S51D/Y107S/R108K/E125D/R127K/E140N limits assumed): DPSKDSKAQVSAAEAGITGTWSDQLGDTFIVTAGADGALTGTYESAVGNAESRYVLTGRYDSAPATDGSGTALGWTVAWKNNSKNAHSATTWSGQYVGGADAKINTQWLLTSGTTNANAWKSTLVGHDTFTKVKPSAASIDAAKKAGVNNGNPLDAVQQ
smiles,measurement,setting,value
"N[C@@H](CCCCNC(=O)CCCC[C@@H]1SC[C@@H]2NC(=O)N[C@@H]21)C(=O)O [Biocytin, biocytin]",Kd,LISA314 WT,2.38 nM
same,Kd,LISA314 V21,348 nM
